Structures can show the parent of a compound that is named as a salt. Where two headings read alike, the source gives them in different places.
Assays:
β-adrenergic = β-adrenergic blockage, in vitro; parameters: unit not given here; conditions: in vit., rat, dose 10
Procedure: (§1) As the results of Table 3 show, the compounds of this invention have both lower toxicity and different side effects than metoclopramide. Compounds of this invention have interesting pharmacological characteristics. The pharmaco dynamics of the compounds prepared in Examples 9, 43 and 48 in the form of their hydrochlorides, as well as the reference compound, metoclopramide dihydrochloride, were determined by pharmacological screening for 54 group activities. The activities which were found were confirmed by secondary tests. Additionally, the ED100 of known group-specific comparative compounds is given.

[1] = antiallergic characteristics (summary statement); conditions: result in words
Adjuvans arthritis = Adjuvans arthritis stoppage; assay type: in vivo, rat; conditions: for anti-inflammatory activity in the adjuvenous arthritis test: result in words; for Adjuvans arthritis stoppage, percent inhibition of the secondary lesions on the 14th day (first value) / Adjuvans arthritis stoppage, percent inhibition of the secondary lesions on the 14th day (second value): rat, 100 mg/kg p.o.; for Adjuvans arthritis stoppage, percent inhibition of the secondary lesions on the 14th day (first value): first of two values; for Adjuvans arthritis stoppage, percent inhibition of the secondary lesions on the 14th day (second value): second of two values
Procedure: as §1

[2] = antimicrobial characteristics (summary statement); conditions: result in words
[3] = acute carrageneen experiment; assay type: in vivo; conditions: result in words
[4] = Systematic anaphylactic test; assay type: in vivo; conditions: po, mouse, p.o.
Procedure: as §1

Cataleptic test = assay type: in vivo, mouse; conditions: po; for minimal effective dose at 100 mg/kg: mouse, p.o., read-out: Cataleptic, MED (average minimal effective dose)
Procedure: as §1

Antiedematous test = assay type: in vivo; conditions: po, rat, p.o.; for minimal effective dose: read-out: Antiedematous, MED (average minimal effective dose)
Procedure: as §1

Muscle relaxant test = assay type: in vivo, mouse; conditions: po; for minimal effective dose at 300 mg/kg: mouse, p.o., read-out: Muscle relaxant, MED (average minimal effective dose)
Procedure: as §1

Antiasthmatic test = assay type: in vivo; conditions: po, rat, p.o.; for minimal effective dose: read-out: Antiasthmatic, MED (average minimal effective dose)
Procedure: as §1

Antithrombotic test = assay type: in vivo, rat; conditions: po; for minimal effective dose at 100 mg/kg: rat, p.o., read-out: Antithrombotic, MED (average minimal effective dose)
Procedure: as §1

E. Coli = test: antibacterial test E. Coli, in vitro; assay type: cell-based; conditions: in vit.
Procedure: as §1

Antiaggressive test = assay type: in vivo, mouse
Procedure: as §1

Amphetamine stereotype = assay type: in vivo, mouse; conditions: po
Procedure: as §1

Anti-electroshock test = assay type: in vivo; conditions: po, mouse, p.o.
Procedure: as §1

Antiarrhytmic test = assay type: in vivo; conditions: mouse, i.p.
Procedure: as §1

[5] = i.p., mouse; cited from earlier work
[6] = rat, cited from earlier work

CCN(CC)CCNC(=O)c1cc(Cl)c(NC(=O)C(C)(C)Oc2ccc(Cl)cc2)cc1OC [Example 9]
β-adrenergic blockage, MEC (average effective concentration) (β-adrenergic): 10

CCN(CC)CCNC(=O)c1cc(Cl)c(NC(=O)COc2ccc(Cl)cc2)cc1OC [Example 40]
antiallergic characteristics [1]: antiallergic characteristics
anti-inflammatory activity in the adjuvenous arthritis test (Adjuvans arthritis): very strong anti-inflammatory activity
antimicrobial characteristics [2]: weak antimicrobial
anti-inflammatory activity in the acute carrageneen experiment [3]: very strong anti-inflammatory activity

CCN(CC)CCNC(=O)c1cc(Cl)c(NC(=O)COc2ccc(Cl)cc2)cc1OC [Example 43]
minimal effective dose ([4]; read-out: Systematic anaphylactic, MED (average minimal effective dose)): 100 mg/kg
minimal effective dose at 100 mg/kg (Cataleptic test): 100 mg/kg
Adjuvans arthritis stoppage, percent inhibition of the secondary lesions on the 14th day (first value) (Adjuvans arthritis): 43%
Adjuvans arthritis stoppage, percent inhibition of the secondary lesions on the 14th day (second value) (Adjuvans arthritis): 46%
minimal effective dose (Antiedematous test): 100 mg/kg
minimal effective dose at 300 mg/kg (Muscle relaxant test): 300 mg/kg
minimal effective dose (Antiasthmatic test): 100 mg/kg
minimal effective dose at 100 mg/kg (Antithrombotic test): 50 mg/kg

CCN(CC)CCNC(=O)c1cc(Cl)c(NC(=O)C(C)Oc2ccc(Cl)cc2)cc1OC (stereo not drawn) [Example 45]
antiallergic characteristics [1]: antiallergic characteristics
anti-inflammatory activity in the adjuvenous arthritis test (Adjuvans arthritis): very strong anti-inflammatory activity
antimicrobial characteristics [2]: weak antimicrobial
anti-inflammatory activity in the acute carrageneen experiment [3]: very strong anti-inflammatory activity

CCN(CC)CCNC(=O)c1cc(Cl)c(NC(=O)C(C)Oc2ccc(Cl)cc2)cc1OC (stereo not drawn) [Example 48]
Adjuvans arthritis stoppage, percent inhibition of the secondary lesions on the 14th day (first value) (Adjuvans arthritis): 45%
Adjuvans arthritis stoppage, percent inhibition of the secondary lesions on the 14th day (second value) (Adjuvans arthritis): 33%
minimal effective dose (Antiasthmatic test): 100 mg/kg
minimal effective dose at 100 mg/kg (Antithrombotic test): 100 mg/kg

CC(=O)Oc1ccccc1C(=O)O [acetylsalicylic acid]
ED100 (Antithrombotic test; Rattus norvegicus, read-out: Antithrombotic, ED100 of reference compound): 100 mg/kg

CC1(C)S[C@@H]2[C@H](NC(=O)[C@H](N)c3ccccc3)C(=O)N2[C@H]1C(=O)O [ampicillin]
E. Coli, ED100 of reference compound (E. Coli): 0.5 mg/kg

CN(C)CCCN1c2ccccc2Sc2ccc(Cl)cc21 [chlorpromazine]
ED100 (Antiaggressive test; Mus musculus, po, read-out: Antiaggressive, ED100 of reference compound): 5 mg/kg
ED100 (Amphetamine stereotype; Mus musculus, read-out: Amphetamine stereotype, ED100 of reference compound): 5 mg/kg

O=C(O)c1cc(=O)c2c(OCC(O)COc3cccc4oc(C(=O)O)cc(=O)c34)cccc2o1 [chromoglycine-sodium]
ED100 (Antiasthmatic test; read-out: Antiasthmatic, ED100 of reference compound): 60 mg/kg

O=C1NC(=O)C(c2ccccc2)(c2ccccc2)N1 [diphenylhydomtoin]
ED100 (Anti-electroshock test; read-out: Anti-electroshock, ED100 of reference compound): 10 mg/kg

CCN(CC)CCNC(=O)c1cc(Cl)c(N)cc1OC [metoclopramide dihydrochloride]
Antiaggressive (Antiaggressive test; mouse, p.o., dose 50 mg/kg, MED not given): 50 mg/kg
minimal effective dose at 100 mg/kg (Cataleptic test): 100 mg/kg
minimal effective dose at 25 mg/kg (Amphetamine stereotype; mouse, p.o., dose 25 mg/kg, read-out: Amphetamine stereotype, MED (average minimal effective dose)): 25 mg/kg
minimal effective dose (Antiedematous test): 50 mg/kg
minimal effective dose (Anti-electroshock test; read-out: Anti-electroshock, MED (average minimal effective dose)): 100 mg/kg
minimal effective dose at 300 mg/kg (Muscle relaxant test): 100 mg/kg
minimal effective dose (Antiarrhytmic test; ip, read-out: Antiarrhytmic, MED (average minimal effective dose)): 100 mg/kg

CCN(CC)CCNC(=O)c1cc(Cl)c(N)cc1OC [metoclopramide]
LD50 [5]: 242 mg/kg
LD50 ([6]; i.p.): 180 mg/kg
LD50 ([6]; oral): 235 mg/kg

CCC1(c2ccccc2)C(=O)NC(=O)NC1=O [phenobarbital]
ED100 (Cataleptic test; Mus musculus, read-out: Cataleptic, ED100 of reference compound): 100 mg/kg
ED100 (Muscle relaxant test; Mus musculus, read-out: Muscle relaxant, ED100 of reference compound): 100 mg/kg

CCCCC1C(=O)N(c2ccccc2)N(c2ccccc2)C1=O [phenybutazone]
ED100 (Antiedematous test; read-out: Antiedematous, ED100 of reference compound): 50 mg/kg

CN(C)CCOc1ccccc1Cc1ccccc1 [phenyltoloxamine]
ED100 ([4]; read-out: Systematic anaphylactic, ED100 of reference compound): 50 mg/kg

guanidine
Antiarrhytmic, ED100 of reference compound (Antiarrhytmic test): 100 mg/kg

Reference: US4146637A, “Anti-inflammatory N-acyl substituted benzamides” (priority 1976, dated 1979)
